# Laboratory results taken from ChEMBL document CHEMBL1201862, “PubChem BioAssay data set” (2004).
#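 Grown in 96-well plates, cells were treated for 48 hours with each compound at five concentrations. Insufficient inhibition: endpoint recorded as highest concentration tested. GI50 marks 50% less growth.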 Active and inactive are the calls of the source. No stated cut-off is given here; in the data, active = GI50 up to about 1.1 µM and inactive = higher.
# Experiments:
# Assay in all cases: NCI tumour cell line growth inhibition, 48 h
# HCT-116 = test system: HCT-116
# UACC-257 = test system: UACC-257
# M19-MEL = test system: M19-MEL
# SNB-75 = test system: SNB-75
# TK-10 = test system: TK-10
# KM-20L2 = test system: KM-20L2
# SF-268 = test system: SF-268
# ACHN = test system: ACHN
# K562 = test system: K562
# MOLT-4 = test system: MOLT-4
# HCT-15 = test system: HCT-15
# RPMI-8226 = test system: RPMI-8226
# UACC-62 = test system: UACC-62
# SK-OV-3 = test system: SK-OV-3
# DLD-1 = test system: DLD-1
# OVCAR-8 = test system: OVCAR-8
# UO-31 = test system: UO-31
# SN12C = test system: SN12C
# NCI-H226 = test system: NCI-H226
# HOP-62 = test system: HOP-62
# SW-620 = test system: SW-620
# 786-0 = test system: 786-0
# OVCAR-4 = test system: OVCAR-4
# HT-29 = test system: HT-29
# NCI-H460 = test system: NCI-H460
# EKVX = test system: EKVX
# DMS-273 = test system: DMS-273
# RXF 393 = test system: RXF 393
# HCC 2998 = test system: HCC 2998
# HL-60 = test system: HL-60
# A549 = test system: A549
# LOX IMVI = test system: LOX IMVI
# SR = test system: SR
# CCRF-CEM = test system: CCRF-CEM
# DMS-114 = test system: DMS-114
# IGROV-1 = test system: IGROV-1
# M14 = test system: M14
# XF498 = test system: XF498
# SK-MEL-28 = test system: SK-MEL-28
# NCI-H23 = test system: NCI-H23
# SF-539 = test system: SF-539
# COLO 205 = test system: COLO 205
# SK-MEL-5 = test system: SK-MEL-5
# OVCAR-5 = test system: OVCAR-5
# SNB-19 = test system: SNB-19
# SNB-78 = test system: SNB-78
# LXFL 529 = test system: LXFL 529
# HOP-18 = test system: HOP-18
# KM12 = test system: KM12
# SF-295 = test system: SF-295
# CAKI-1 = test system: CAKI-1
# U-251 = test system: U-251
# A498 = test system: A498
# SK-MEL-2 = test system: SK-MEL-2
# HOP-92 = test system: HOP-92
# Malme-3M = test system: Malme-3M
# NCI-H522 = test system: NCI-H522
smiles,measurement,setting,value
CCN(CC)CC(=O)NC1c2ccccc2Oc2c(C)cccc21 (configuration not stated),GI50,HCT-116,95.5 µM (inactive)
same,GI50,UACC-257,> 100 µM (inactive)
same,GI50,M19-MEL,> 100 µM (inactive)
same,GI50,SNB-75,49.5 µM (inactive)
same,GI50,TK-10,> 100 µM (inactive)
same,GI50,KM-20L2,55.7 µM (inactive)
same,GI50,SF-268,> 100 µM (inactive)
same,GI50,ACHN,32.9 µM (inactive)
same,GI50,K562,53.1 µM (inactive)
same,GI50,MOLT-4,62.7 µM (inactive)
same,GI50,HCT-15,> 100 µM
same,GI50,RPMI-8226,78.7 µM (inactive)
same,GI50,UACC-62,> 100 µM (inactive)
same,GI50,SK-OV-3,> 100 µM (inactive)
same,GI50,DLD-1,81.3 µM (inactive)
same,GI50,OVCAR-8,> 100 µM (inactive)
same,GI50,UO-31,23.2 µM (inactive)
same,GI50,SN12C,> 100 µM (inactive)
same,GI50,NCI-H226,> 100 µM (inactive)
same,GI50,HOP-62,> 100 µM (inactive)
same,GI50,SW-620,> 100 µM (inactive)
same,GI50,786-0,> 100 µM (inactive)
same,GI50,OVCAR-4,> 100 µM (inactive)
same,GI50,HT-29,> 100 µM (inactive)
same,GI50,NCI-H460,> 100 µM (inactive)
same,GI50,EKVX,> 100 µM (inactive)
same,GI50,DMS-273,> 100 µM (inactive)
same,GI50,RXF 393,38.7 µM (inactive)
same,GI50,HCC 2998,> 100 µM (inactive)
same,GI50,HL-60,37.7 µM (inactive)
same,GI50,A549,> 100 µM (inactive)
same,GI50,LOX IMVI,> 100 µM (inactive)
same,GI50,SR,57.7 µM (inactive)
same,GI50,CCRF-CEM,> 100 µM (inactive)
same,GI50,DMS-114,> 100 µM (inactive)
same,GI50,IGROV-1,> 100 µM (inactive)
same,GI50,M14,> 100 µM (inactive)
same,GI50,XF498,40 µM (inactive)
same,GI50,SK-MEL-28,> 100 µM (inactive)
same,GI50,NCI-H23,> 100 µM (inactive)
same,GI50,SF-539,> 100 µM (inactive)
same,GI50,COLO 205,> 100 µM (inactive)
same,GI50,SK-MEL-5,69.5 µM (inactive)
same,GI50,OVCAR-5,> 100 µM (inactive)
same,GI50,SNB-19,> 100 µM (inactive)
same,GI50,SNB-78,> 100 µM (inactive)
same,GI50,LXFL 529,> 100 µM (inactive)
Cc1nc2ccccc2c(=O)n1NC(=S)Nc1cccc(Cl)c1,GI50,HCT-116,> 100 µM (inactive)
same,GI50,UACC-257,> 100 µM (inactive)
same,GI50,M19-MEL,> 100 µM (inactive)
same,GI50,SNB-75,72.9 µM (inactive)
same,GI50,HOP-18,> 100 µM (inactive)
same,GI50,KM12,> 100 µM (inactive)
same,GI50,TK-10,> 100 µM (inactive)
same,GI50,SF-268,> 100 µM (inactive)
same,GI50,ACHN,> 100 µM (inactive)
same,GI50,SF-295,> 100 µM (inactive)
same,GI50,CAKI-1,> 100 µM (inactive)
same,GI50,K562,> 100 µM (inactive)
same,GI50,MOLT-4,> 100 µM (inactive)
same,GI50,HCT-15,> 100 µM
same,GI50,RPMI-8226,> 100 µM (inactive)
same,GI50,UACC-62,> 100 µM (inactive)
same,GI50,SK-OV-3,> 100 µM (inactive)
same,GI50,U-251,> 100 µM (inactive)
same,GI50,DLD-1,> 100 µM (inactive)
same,GI50,OVCAR-8,> 100 µM (inactive)
same,GI50,UO-31,> 100 µM (inactive)
same,GI50,A498,> 100 µM (inactive)
same,GI50,SN12C,> 100 µM (inactive)
same,GI50,NCI-H226,> 100 µM (inactive)
same,GI50,HOP-62,> 100 µM (inactive)
same,GI50,SW-620,> 100 µM (inactive)
same,GI50,786-0,> 100 µM (inactive)
same,GI50,OVCAR-4,> 100 µM (inactive)
same,GI50,HT-29,> 100 µM (inactive)
same,GI50,NCI-H460,> 100 µM (inactive)
same,GI50,SK-MEL-2,> 100 µM (inactive)
same,GI50,DMS-273,> 100 µM (inactive)
same,GI50,RXF 393,> 100 µM (inactive)
same,GI50,HL-60,> 100 µM (inactive)
same,GI50,A549,> 100 µM (inactive)
same,GI50,LOX IMVI,65.5 µM (inactive)
same,GI50,SR,31.8 µM (inactive)
same,GI50,HOP-92,> 100 µM (inactive)
same,GI50,CCRF-CEM,> 100 µM (inactive)
same,GI50,IGROV-1,> 100 µM (inactive)
same,GI50,M14,> 100 µM (inactive)
same,GI50,Malme-3M,> 100 µM (inactive)
same,GI50,SK-MEL-28,> 100 µM (inactive)
same,GI50,NCI-H522,33.7 µM (inactive)
same,GI50,NCI-H23,> 100 µM (inactive)
same,GI50,SF-539,> 100 µM (inactive)
same,GI50,COLO 205,> 100 µM (inactive)
same,GI50,SK-MEL-5,> 100 µM (inactive)
same,GI50,OVCAR-5,> 100 µM (inactive)
same,GI50,LXFL 529,> 100 µM (inactive)
